From patent US12390441B2, “Immunomodulating o-het/aryl azalides” (Zoetis Services LLC, priority 2020, dated 2025)
Marks after values point to notes of the source that are not given here.

Experiments:
[1] = system: BRD pathogens, M. haemolytica and P. multocida; experiment: In-vitro MIC model, BRD pathogen screening panel; format: cell-based, Mannheimia haemolytica; Pasteurella multocida; settings: for MIC for at least one BRD strain (asterisk on Ex#): Table F, Formula (1-A1a) compounds
[2] = system: TNF-α; experiment: Whole blood assay, LPS stimulation, MSD cytokine detection; format: cell-based; settings: fresh whole bovine blood
[3] = system: IL-1β; experiment: as above; format: cell-based, bovine; settings: fresh whole bovine blood, LPS stimulation; drug concentration giving overstimulation (OS) of IL-1β
[4] = system: IL-6; experiment: as above; format: cell-based; settings: fresh whole bovine blood

| SMILES | MIC flag at the example number (Table E) ([1]; at least one BRD strain) | other results |
| --- | --- | --- |
| CCCNC[C@]1(O)[C@H](C)O[C@@H](O[C@H]2[C@H](C)[C@@H](O[C@@H]3O[C@H](C)C[C@H](NC)[C@H]3Oc3ccc(Cl)cc3)[C@](C)(O)C[C@@H](C)CN[C@H](C)[C@@H](O)[C@](C)(O)[C@@H](CC)OC(=O)[C@@H]2C)C[C@@]1(C)OC [Example E-106] | E-106* (MIC ≤ 64 μg/mL for at least one BRD strain) |  |
| CCCN(C[C@]1(O)[C@H](C)O[C@@H](O[C@H]2[C@H](C)[C@@H](O[C@@H]3O[C@H](C)C[C@H](NC)[C@H]3Oc3ncc(Cl)cn3)[C@](C)(O)C[C@@H](C)CN[C@H](C)[C@@H](O)[C@](C)(O)[C@@H](CC)OC(=O)[C@@H]2C)C[C@@]1(C)OC)c1ncc(Cl)cn1 [Example E-119] | E-119* (MIC ≤ 64 μg/mL for at least one BRD strain) |  |
| CCCNC[C@]1(O)[C@H](C)O[C@@H](O[C@H]2[C@H](C)[C@@H](O[C@@H]3O[C@H](C)C[C@H](NC)[C@H]3Oc3cccnc3C)[C@](C)(O)C[C@@H](C)CN[C@H](C)[C@@H](O)[C@](C)(O)[C@@H](CC)OC(=O)[C@@H]2C)C[C@@]1(C)OC [Example E-44] | E-44* (MIC ≤ 64 μg/mL for at least one BRD strain) |  |
| CCCNC[C@]1(O)[C@H](C)O[C@@H](O[C@H]2[C@H](C)[C@@H](O[C@@H]3O[C@H](C)C[C@H](NC)[C@H]3Oc3ccccc3OC(F)(F)F)[C@](C)(O)C[C@@H](C)CN[C@H](C)[C@@H](O)[C@](C)(O)[C@@H](CC)OC(=O)[C@@H]2C)C[C@@]1(C)OC [Example E-5] | E-5* (MIC ≤ 64 μg/mL for at least one BRD strain) |  |
| CCCNC[C@]1(O)[C@H](C)O[C@@H](O[C@H]2[C@H](C)[C@@H](O[C@@H]3O[C@H](C)C[C@H](N(C)C)[C@H]3Oc3ccc(OC)c(OC(C)C)c3)[C@](C)(O)C[C@@H](C)CN[C@H](C)[C@@H](O)[C@](C)(O)[C@@H](CC)OC(=O)[C@@H]2C)C[C@@]1(C)OC [Example E-29] | E-29* (MIC ≤ 64 μg/mL for at least one BRD strain) |  |
| CCCNC[C@]1(O)[C@H](C)O[C@@H](O[C@H]2[C@H](C)[C@@H](O[C@@H]3O[C@H](C)C[C@H](NC)[C@H]3Oc3cccc(Cl)c3)[C@](C)(O)C[C@@H](C)CN[C@H](C)[C@@H](O)[C@](C)(O)[C@@H](CC)OC(=O)[C@@H]2C)C[C@@]1(C)OC [Example E-21] | E-21* (MIC ≤ 64 μg/mL for at least one BRD strain) |  |
| CCCNC[C@]1(O)[C@H](C)O[C@@H](O[C@H]2[C@H](C)[C@@H](O[C@@H]3O[C@H](C)C[C@H](NC)[C@H]3Oc3ccncc3)[C@](C)(O)C[C@@H](C)CN[C@H](C)[C@@H](O)[C@](C)(O)[C@@H](CC)OC(=O)[C@@H]2C)C[C@@]1(C)OC [Example E-32] | E-32* (MIC ≤ 64 μg/mL for at least one BRD strain) |  |
| CCCNC[C@]1(O)[C@H](C)O[C@@H](O[C@H]2[C@H](C)[C@@H](O[C@@H]3O[C@H](C)C[C@H](N(C)C)[C@H]3Oc3ccc(OC)c(OCC)c3)[C@](C)(O)C[C@@H](C)CN[C@H](C)[C@@H](O)[C@](C)(O)[C@@H](CC)OC(=O)[C@@H]2C)C[C@@]1(C)OC [Example E-88] | E-88* (MIC ≤ 64 μg/mL for at least one BRD strain) |  |
| CCCNC[C@]1(O)[C@H](C)O[C@@H](O[C@H]2[C@H](C)[C@@H](O[C@@H]3O[C@H](C)C[C@H](N(C)C(=O)N(C)c4ccccc4)[C@H]3Oc3ccc(C#N)cc3)[C@](C)(O)C[C@@H](C)CN[C@H](C)[C@@H](O)[C@](C)(O)[C@@H](CC)OC(=O)[C@@H]2C)C[C@@]1(C)OC [Example F-21] |  | MIC for at least one BRD strain (asterisk on Ex#) [1]: F-21* (MIC ≤ 64 μg/mL for at least one BRD strain) |
| CCCNC[C@]1(O)[C@H](C)O[C@@H](O[C@H]2[C@H](C)[C@@H](O[C@@H]3O[C@H](C)C[C@H](NC)[C@H]3Oc3ccc(-n4cccc4)cc3)[C@](C)(O)C[C@@H](C)CN[C@H](C)[C@@H](O)[C@](C)(O)[C@@H](CC)OC(=O)[C@@H]2C)C[C@@]1(C)OC [Example E-82] | E-82* (MIC ≤ 64 μg/mL for at least one BRD strain) |  |
| CCCNC[C@]1(O)[C@H](C)O[C@@H](O[C@H]2[C@H](C)[C@@H](O[C@@H]3O[C@H](C)C[C@H](N(C)C)[C@H]3Oc3ccc(OC)cc3OC)[C@](C)(O)C[C@@H](C)CN[C@H](C)[C@@H](O)[C@](C)(O)[C@@H](CC)OC(=O)[C@@H]2C)C[C@@]1(C)OC [Example E-97] | E-97* (MIC ≤ 64 μg/mL for at least one BRD strain) |  |
| CCCNC[C@]1(O)[C@H](C)O[C@@H](O[C@H]2[C@H](C)[C@@H](O[C@@H]3O[C@H](C)C[C@H](N(C)C)[C@H]3Oc3ccc4ccncc4c3)[C@](C)(O)C[C@@H](C)CN[C@H](C)[C@@H](O)[C@](C)(O)[C@@H](CC)OC(=O)[C@@H]2C)C[C@@]1(C)OC [Example E-85] | E-85* (MIC ≤ 64 μg/mL for at least one BRD strain) |  |
| CCCNC[C@]1(O)[C@H](C)O[C@@H](O[C@H]2[C@H](C)[C@@H](O[C@@H]3O[C@H](C)C[C@H](NC)[C@H]3Oc3ccc(C)cc3)[C@](C)(O)C[C@@H](C)CN[C@H](C)[C@@H](O)[C@](C)(O)[C@@H](CC)OC(=O)[C@@H]2C)C[C@@]1(C)OC [Example E-103] | E-103* (MIC ≤ 64 μg/mL for at least one BRD strain) |  |
| CCCNC[C@]1(O)[C@H](C)O[C@@H](O[C@H]2[C@H](C)[C@@H](O[C@@H]3O[C@H](C)C[C@H](NC)[C@H]3Oc3cc(F)ccc3OC)[C@](C)(O)C[C@@H](C)CN[C@H](C)[C@@H](O)[C@](C)(O)[C@@H](CC)OC(=O)[C@@H]2C)C[C@@]1(C)OC [Example E-17] | E-17* (MIC ≤ 64 μg/mL for at least one BRD strain) |  |
| CCCNC[C@]1(O)[C@H](C)O[C@@H](O[C@H]2[C@H](C)[C@@H](O[C@@H]3O[C@H](C)C[C@H](N(C)C(=O)N4CCOc5ccccc54)[C@H]3Oc3ccccc3)[C@](C)(O)C[C@@H](C)CN[C@H](C)[C@@H](O)[C@](C)(O)[C@@H](CC)OC(=O)[C@@H]2C)C[C@@]1(C)OC [Example G-2] |  | MIC flag at the example number (Table G) ([1]; at least one BRD strain): G-2* (MIC ≤ 64 μg/mL for at least one BRD strain) |
| CCCNC[C@]1(O)[C@H](C)O[C@@H](O[C@H]2[C@H](C)[C@@H](O[C@@H]3O[C@H](C)C[C@H](NC)[C@H]3Oc3ccc(F)c(F)c3F)[C@](C)(O)C[C@@H](C)CN[C@H](C)[C@@H](O)[C@](C)(O)[C@@H](CC)OC(=O)[C@@H]2C)C[C@@]1(C)OC [Example E-55] | E-55* (MIC ≤ 64 μg/mL for at least one BRD strain) |  |
| CCCNC[C@]1(O)[C@H](C)O[C@@H](O[C@H]2[C@H](C)[C@@H](O[C@@H]3O[C@H](C)C[C@H](NC)[C@H]3Oc3ccc(C(F)(F)F)cc3)[C@](C)(O)C[C@@H](C)CN[C@H](C)[C@@H](O)[C@](C)(O)[C@@H](CC)OC(=O)[C@@H]2C)C[C@@]1(C)OC [Example E-104] | E-104* (MIC ≤ 64 μg/mL for at least one BRD strain) |  |
| CCCNC[C@]1(O)[C@H](C)O[C@@H](O[C@H]2[C@H](C)[C@@H](O[C@@H]3O[C@H](C)C[C@H](N(C)C(=O)N(C)CCC)[C@H]3Oc3ccccc3)[C@](C)(O)C[C@@H](C)CN[C@H](C)[C@@H](O)[C@](C)(O)[C@@H](CC)OC(=O)[C@@H]2C)C[C@@]1(C)OC [Example F-11] |  | MIC for at least one BRD strain (asterisk on Ex#) [1]: F-11* (MIC ≤ 64 μg/mL for at least one BRD strain) |
| CC[C@H]1OC(=O)[C@H](C)[C@@H](O[C@H]2C[C@@](C)(OC)[C@@H](O)[C@H](C)O2)[C@H](C)[C@@H](O[C@@H]2O[C@H](C)C[C@H](N(C)C)[C@H]2Oc2cccc(OC)c2)[C@](C)(O)C[C@@H](C)CN(C)[C@H](C)[C@@H](O)[C@]1(C)O [Example A-20] |  | MIC flag at the example number (Table A) ([1]; at least one BRD strain): A-20* (MIC ≤ 64 μg/mL for at least one BRD strain) |
| CCCNC[C@]1(O)[C@H](C)O[C@@H](O[C@H]2[C@H](C)[C@@H](O[C@@H]3O[C@H](C)C[C@H](N(C)C)[C@H]3Oc3ccccc3Cl)[C@](C)(O)C[C@@H](C)CN[C@H](C)[C@@H](O)[C@](C)(O)[C@@H](CC)OC(=O)[C@@H]2C)C[C@@]1(C)OC [Example E-83] | E-83* (MIC ≤ 64 μg/mL for at least one BRD strain) |  |
| CCCNC[C@]1(O)[C@H](C)O[C@@H](O[C@H]2[C@H](C)[C@@H](O[C@@H]3O[C@H](C)C[C@H](NC)[C@H]3Oc3ccc(OC)c(OC)c3)[C@](C)(O)C[C@@H](C)CN[C@H](C)[C@@H](O)[C@](C)(O)[C@@H](CC)OC(=O)[C@@H]2C)C[C@@]1(C)OC [Example E-74] | E-74* (MIC ≤ 64 μg/mL for at least one BRD strain) |  |
| CCCNC[C@]1(O)[C@H](C)O[C@@H](O[C@H]2[C@H](C)[C@@H](O[C@@H]3O[C@H](C)C[C@H](NC)[C@H]3Oc3cc(F)cc(F)c3)[C@](C)(O)C[C@@H](C)CN[C@H](C)[C@@H](O)[C@](C)(O)[C@@H](CC)OC(=O)[C@@H]2C)C[C@@]1(C)OC [Example E-16] | E-16* (MIC ≤ 64 μg/mL for at least one BRD strain) |  |
| CCCNC[C@]1(O)[C@H](C)O[C@@H](O[C@H]2[C@H](C)[C@@H](O[C@@H]3O[C@H](C)C[C@H](NC)[C@H]3Oc3ccccc3)[C@](C)(O)C[C@@H](C)CN(CCC)[C@H](C)[C@@H](O)[C@](C)(O)[C@@H](CC)OC(=O)[C@@H]2C)C[C@@]1(C)OC [Example E-157] |  | IC50 ([2]; Bos taurus): 9 µM; IL-1ß OS of LPS [3]: 16 µM; IC50 ([4]; Bos taurus): 10 µM |
| CC[C@H]1OC(=O)[C@H](C)[C@@H](O)[C@H](C)[C@@H](O[C@@H]2O[C@H](C)C[C@H](N(C)C(=O)N(C)c3ncccn3)[C@H]2Oc2ccccc2)[C@](C)(O)C[C@@H](C)CN(C)[C@H](C)[C@@H](O)[C@]1(C)O [Example C-17] |  | IC50 [2]: 38 µM; IL-1ß OS of LPS [3]: 44 µM; IC50 [4]: 63 µM |
| CC[C@H]1OC(=O)[C@H](C)[C@@H](O[C@H]2C[C@@](C)(OC)[C@](O)(CNn3ccnc3)[C@H](C)O2)[C@H](C)[C@@H](O[C@@H]2O[C@H](C)C[C@H](N(C)C)[C@H]2Oc2ccccc2)[C@](C)(O)C[C@@H](C)CN[C@H](C)[C@@H](O)[C@]1(C)O [Example E-40] |  | IC50 [2]: 11 µM; IL-1ß OS of LPS [3]: 40 µM; IC50 [4]: 55 µM |
